Measurements published in patent publication EP4050002A1, “ANTI-PROLIFERATIVE AGENTS” (First Health Pharmaceuticals B.V., priority 2021, dated 2022).

Experiments:
PANC-1 cell line = test: Cytotoxicity, cell count method; assay type: cell-based; conditions: Homo sapiens, PANC-1, 72 hours of incubation
Protocol: (§1) The anti-tumor activity of the compounds of the present invention was evaluated as the effect on the proliferation and survival of tumor cells by counting the number of living cells in presence or absence of the compounds ("cell count method"), and as the effect on the viability and metabolic activity of the cells, by using particular substrates that are converted by cellular enzymes into coloured or luminescent products, proportionally with metabolic activity and state of the cell, such as the MTS tetrazolium compound ("MTS method") or luciferin ("ATP-based method") respectively.
(§2) Cells were seeded at 3 to 5 x 10^4 cells/well density depending on cell lines and maintained at 37°C in 5% CO2. After 24 hours cells were treated with ascending concentrations of the investigational compounds and the reference (5-fluoro-Uracyl) in a range from 0 to 100 µM. Compounds were dissolved in DMSO which final concentration in each well was 0.5% v:v. After 72 h of incubation with compounds, the cells were detached with trypsin and re-suspended in 1 ml of complete medium; the cell number was evaluated using a Z2 Coulter Counter ("cell count method") (Attallah and Johnson, A simple highly sensitive methods for the determination of cell viability using an electronic particle analyzer, Coulter counter J. Immunol. Methods. 1981, 41, 155; Leonardi et al., Activated kinase screening identifies the IKBKE oncogene as a positive regulator of autophagy. Autophagy, 2019, 15, 312). Alternatively, after the 72 hours of incubation with compounds, the MTS solution (CellTiter 96® AQueous One Solution Cell Proliferation Assay) is added to each well and absorbance at 490 nm wavelength is read after 2 hours of incubation ("MTS method"). Results in Tables 8-13, 17, 18 were obtained with the cell count method. Results in Tables 14-15 were obtained with the MTS method. Results in Table 16 were obtained with ATP-based method.

A549 Red-FLuc = test: Cytotoxicity, cell count method; assay type: cell-based; conditions: Homo sapiens, 72 hours of incubation
Protocol: as §1, §2

SK-LU1 = test: Cytotoxicity, cell count method; assay type: cell-based; conditions: Homo sapiens, SK-LU-1, SK-LU1, 72 hours of incubation
Protocol: as §1, §2

DU145 cell line = test: Cytotoxicity, cell count method; assay type: cell-based; conditions: Homo sapiens, DU-145, DU145, 72 hours of incubation
Protocol: as §1, §2

U87 = test: Cytotoxicity, cell count method; assay type: cell-based; conditions: Homo sapiens, U-87 MG, U87, 72 hours of incubation
Protocol: as §1, §2

A375 cell line = test: Cytotoxicity, cell count method; assay type: cell-based; conditions: Homo sapiens, A-375, A375, 72 hours of incubation
Protocol: as §1, §2

HUH7 cell line = test: Cytotoxicity, cell count method; assay type: cell-based; conditions: Homo sapiens, Huh-7, HUH7, 72 hours of incubation
Protocol: as §1, §2

CALU1 = test: Cytotoxicity, cell count method; assay type: cell-based; conditions: Homo sapiens, Calu-1, CALU1, 72 hours of incubation
Protocol: as §1, §2

A549 = test: Cytotoxicity, cell count method; assay type: cell-based; conditions: Homo sapiens, A549, 72 hours of incubation
Protocol: as §1, §2

PBMC = test: Cytotoxicity in primary cells, ATP-based method; assay type: cell-based, human
Protocol: The non-specific toxicity of the compounds is evaluated in non-tumor immortalized cells with cell count and / or MTS methods, and in primary Peripheral Blood Mononuclear Cells (PBMC) with the ATP-based method.
Primary human Peripheral Blood Mononuclear Cells (PBMC) are incubated at 37°C and 5% CO2 for the viability assay with CellTiter Glo 2.0 kit, an ATP-based method (Promega, Catalog number: G9241). 48 h prior to the assay, 2 µg/ml of phytohemagglutinin-A (PHA) are added to PBMC culture and cells are incubated for 48 h at 37°C and 5% CO2. PBMC are centrifuged at 300 G for 10 minutes, then re-suspended in growth medium and plated at density of 6 x 10^4 cells/well. […]
PBMC incubated with the same amount of DMSO present in the compound dilutions are used as control. After the incubation, 50 µl of cell cultures from each well are transferred in a luminescence plate after vigorous pipetting and 50 µl of CellTiter Glo 2.0 are added in each well, then the plate is incubated in the Glomax Discovery Reader (Promega, Catalog number: GM3000) following the instructions. Relative luminescence units (RLU) calculated in each well is elaborated with GraphPad software: 100% viability is determined as the mean RLU value measured in the wells containing untreated PBMCs. IC50 was calculated by GraphPad Prism 8.0 software.

Q: How did the IC50 (PANC-1 cell line) turn out when `CCCCc1cn(-c2ccc(-c3nnc(-c4ccccc4C(F)(F)F)o3)cc2)nn1` [Compound 5] was run?
A: 0.72 µM

Q: And the IC50 (A549 Red-FLuc)?
A: 6.04 µM

Q: What about the IC50 (SK-LU1) of the same compound?
A: 0.42 µM

Q: And the IC50 (DU145 cell line)?
A: 3.7 µM

Q: What about the IC50 (U87) of the same compound?
A: 3.9 µM

Q: And the IC50 (A375 cell line)?
A: 0.94 µM

Q: What about the IC50 (HUH7 cell line) of the same compound?
A: 3.28 µM

Q: And the IC50 (CALU1)?
A: 0.37 µM

Q: What about the IC50 (A549) of the same compound?
A: 0.35 µM

Q: And the IC50 (PBMC; Homo sapiens, PBMC, 72 hours of incubation, ATP-based method)?
A: 200 µM

Q: And the toxicity (PBMC; primary human cells (Table 16))?
A: above 100 µM
